The text below walks through data of US20080214527A1, “Hiv Integrase Inhibitors” (priority 2005, published 2008).

One series has as its target HIV integrase (Human immunodeficiency virus type 1 group M subtype B, UniProt P04585). Nature of the series: Integrase inhibition assay (substrate DNA/target DNA microtiter plate, OD 405 nm). It counts as biochemical. Here is the method: The inhibitory activities of the present compounds against integrase were determined by the assay described below.
A substrate DNA solution (2 pmol/μl) and a target DNA solution (5 pmol/μl) were prepared by the same method as that described in Experimental Example 1 of WO 2004/024693. The DNA solutions were heated and then slowly cooled so that they were annealed with each complement. Each sequence of the substrate DNA and the target DNA is the same as described in the Experimental Example.
Streptavidin, obtained from Vector Laboratories, was dissolved in 0.1 M carbonate buffer (composition: 90 mM Na2CO3, 10 mM NaHCO3) at a concentration of 40 μg/ml. After coating each well of microtiter plates (obtained from NUNC) with 50 μl of the above solution at 4° C. over night, each well was washed twice with PBS (composition: […], 0.27 mM KCl, 0.43 mM Na2HPO4, 0.14 mM KH2PO4) and blocked with 300 μl of 1% skim milk in PBS for 30 min. Additionally, each well was washed twice with PBS and added with 50 μl of the substrate DNA solution (2 pmol/μl). The microtiter plates were kept at room temperature for 30 min. Then, each well was washed twice with PBS and once with H2O.
Subsequently, to the each well prepared above were added 51 μl of the reaction buffer prepared from 12 μl of the buffer (composition: 150 mM MOPS (pH 7.2), 75 mM MnCl2, 50 mM 2-mercaptoethanol, 25% glycerol, 500 μg/ml bovine serum albumin-fraction V) and 39 μl of the distilled water. Additionally, 9 μl of an integrase solution (30 pmol) was added thereto and the mixture was mixed well. To the well of negative control (NC) was added 9 μl of the integrase dilution buffer (composition: 20 mM MOPS (pH7.2), 400 mM potassium glutamate, 1 mM EDTA, 0.1% NP-40, 20% glycerol, 1 mM DTT, 4 M urea).
The microtiter plates were incubated at 30° C. for 1 hour. The reaction solution was removed and each well was washed three times with 250 μl of the wash buffer (composition: 150 mM MOPS (pH 7.2), 50 mM 2-mercaptoethanol, 25% glycerol, 500 μg/ml bovine serum albumin-fraction V).
Subsequently, to each well prepared above were added 53 μl of the reaction buffer prepared from 12 μl of the buffer (composition: 150 mM MOPS (pH 7.2), 75 mM MgCl2, 50 mM 2-mercaptoethanol, 25% glycerol, 500 μg/ml bovine serum albumin-fraction V) and 41 μl of the distilled water. Additionally, 6 μl of either a test compound in DMSO or DMSO for positive control (PC) was mixed well. After the microtiter plates were incubated at 30° C. for 30 minutes, 1 μl of target DNA (5 pmol/μl) was added to each well, and the reaction mixture was mixed well.
The microtiter plates were incubated at 30° C. for 10 minutes. The reaction solution was removed and each well was washed twice with PBS. Subsequently, each well of the microtiter plates was filled with 100 μl of anti-digoxigenin antibody labeled with alkaline phosphatase (Sheep Fab fragment: obtained from Boehringer) and incubated at 30° C. for 1 hour. Then, each well was washed twice with 0.05% Tween20 in PBS and once with PBS. Next, 150 μl of the Alkaline phosphatase reaction buffer (composition: 10 mM p-Nitrophenylphosphate (obtained from Vector Laboratories), 5 mM MgCl2, 100 mM NaCl, 100 mM Tris-HCl (pH 9.5)) was added to each well. The microtiter plates were incubated at 30° C. for 2 hours and the reaction was terminated by the addition of 50 μl of 1 N NaOH solution. The optical density (OD) at 405 nm of each well was measured and the percent inhibition was determined by the following expression.
The percent inhibition (%)=100[1−{(C abs.−NC abs.)/(PC abs.−NC abs.)}]
When the percent inhibition (%) is X % at a concentration of ×μg/ml and the percent inhibition (%) is Y % at a concentration of y μg/ml, one of which is more than 50% and the other is less than 50%, IC50 can be determined by the following expression.
IC50(μg/ml)=x−{(X−50)(x−y)/(X−Y)}

For series [1], the system named is HIV-1 (IIIB strain) in MT-4 cells. Kind of series: MT4 assay: inhibition of virus-induced CPE in MT-4 cells (MTT method). The class given is cell-based. The settings on record: Human immunodeficiency virus 1, MT4, 96 h, 4-day incubation, read-out: anti-HIV activity EC50. As to the method: MT-4 cells (human T-cell line established by HTLV-I-induced transformation) were cultured in RPMI1640 medium supplemented with 10% fetal calf serum and kanamycin ([…]) in 5% CO2, humidified incubator at 37° C. The stock of HIV-1 was produced as follows. Molt-4 cells persistently infected with HIV-1 (IIIB strain) were cultured for 3 days and culture supernatant was collected. After removal of cells by centrifugation, the supernatant was passed through membrane filter ([…]) and stored as cell-free culture supernatant at −80° C. The infectivity of the stock virus was measured by MTT assay.
Anti-HIV activity in vitro of test compounds was assayed by inhibition of virus-induced CPE in MT-4 cells. MT-4 cells were suspended in culture medium at 2.5×10^5 cells/ml. The cell suspension ([…]) was added to each well of a 96 well flat-bottom microtiter plate containing serial 2-fold dilution of test compounds ([…]). HIV-1 ([…]) was added to each well (4-10 TCID50/well). After 4-day incubation at 37° C., the viability of MT-4 cells was determined by the MTT method using 3-(4,5-dimethylthiazol-2-yl)-2,5-diphenyltetrazolium bromide.
The absorbance (OD) of each well was measured at two wavelengths (560 and 690 nm). All data represent the average values of three wells. The concentration (conc.) achieving 50% protection of HIV replication (EC50) were calculated.
(In general: Tetrazolium dyes change colour on reduction, which living cells bring about.)

For orientation: melting point means the temperature, or range, at which the solid turns liquid. Usually IC50 stands for the point on the concentration scale where inhibition reaches its midpoint. What is called EC50 is the midpoint of the concentration-response curve.

With `Cn1c(=O)c(C(=O)NCCO)c(O)c2ncc(Cc3ccc(F)cc3COC(N)=O)cc21`, the melting point is 238 to 240 °C.
Compound `CCNC(=O)OCc1cc(F)ccc1Cc1cnc2c(O)c(C(=O)NCCO)c(=O)n(C)c2c1` came in with a melting point of 180 to 182 °C.
Compound `CCNC(=O)OCc1cc(F)ccc1Cc1cnc2c(O)c(C(=O)NCCOC)c(=O)n(C)c2c1` registered a melting point of 157 to 159 °C.
`Cn1c(=O)c(C(=O)NCCO)c(O)c2ncc(Cc3ccc(F)cc3OCCN3CCOCC3)cc21` [Example 9, 7-[4-Fluoro-2-(2-morpholin-4-yl-ethoxy)-benzyl]-4-hydroxy-1-methyl-2-oxo-1,2-dihydro-[1,5]naphthyridine-3-carboxylic acid(2-hydroxy-ethyl)-amide]: the melting point fell in the range of 161 to 162 °C. At HIV integrase, this compound returned an IC50 of less than 100 nM. Also, the EC50 in series [1] fell in the range of 1 to 100 nM.
For the compound `COCC#Cc1cc(F)ccc1Cc1cnc2c(O)c(C(=O)NCCO)c(=O)n(C)c2c1` [Example 13, 7-[4-Fluoro-2-(3-methoxy-prop-1-ynyl)-benzyl]-4-hydroxy-1-methyl-2-oxo-1,2-dihydro-[1,5]naphthyridine-3-carboxylic acid(2-hydroxy-ethyl)-amide], on HIV integrase, the IC50 was less than 100 nM. Also, the EC50 in series [1] fell in the range of 1 to 100 nM.
`COCC#Cc1cc(F)ccc1Cc1cnc2c(O)c(C(=O)NCCOC)c(=O)n(C)c2c1` [Example 15, 7-[4-Fluoro-2-(3-methoxy-prop-1-ynyl)-benzyl]-4-hydroxy-1-methyl-2-oxo-1,2-dihydro-[1,5]naphthyridine-3-carboxylic acid(2-methoxy-ethyl)-amide] came in with a melting point of 179 to 180 °C. Moreover, the IC50 at HIV integrase was less than 100 nM. Further, the EC50 in series [1] lay in the range of 1 to 100 nM.
Taken in the same sequence, the figures for `CC(=O)c1cc(F)ccc1Cc1cnc2c(O)c(C(=O)NCCO)c(=O)n(C)c2c1` [Example 17, 7-(2-Acetyl-4-fluoro-benzyl)-4-hydroxy-1-methyl-2-oxo-1,2-dihydro-[1,5]naphthyridine-3-carboxylic acid(2-hydroxy-ethyl)-amide] were 212 to 215 °C, less than 100 nM and 1 to 100 nM.
On to `COCCNC(=O)c1c(O)c2ncc(Cc3ccc(F)cc3COC(N)=O)cc2n(C)c1=O` [Example 22, Carbamic acid 5-fluoro-2-[8-hydroxy-7-(2-methoxy-ethylcarbamoyl)-5-methyl-6-oxo-5,6-dihydro-[1,5]naphthyridin-3-ylmethyl]-benzyl ester], for which the melting point fell in the range of 180 to 183 °C. This compound also displayed an IC50 against HIV integrase of less than 100 nM. Besides, the EC50 in series [1] was 1 to 100 nM.
In turn, `COCc1cc(F)ccc1Cc1cnc2c(O)c(C(=O)NCCO)c(=O)n(C)c2c1` [Example 25, 7-(4-Fluoro-2-methoxymethyl-benzyl)-4-hydroxy-1-methyl-2-oxo-1,2-dihydro-[1,5]naphthyridine-3-carboxylic acid(2-hydroxy-ethyl)-amide] returned an IC50 at HIV integrase of less than 100 nM. Further, the EC50 in series [1] lay within 1 to 100 nM.
Taken in the same sequence, the figures for `Cn1c(=O)c(C(=O)NCCO)c(O)c2ncc(Cc3ccc(F)cc3CN3CCCCS3(=O)=O)cc21` [Example 33, 7-[2-(1,1-Dioxo-1lambda*6*-[1,2]thiazinan-2-ylmethyl)-4-fluoro-benzyl]-4-hydroxy-1-methyl-2-oxo-1,2-dihydro-[1,5]naphthyridine-3-carboxylic acid(2-hydroxy-ethyl)-amide] were less than 100 nM and 1 to 100 nM.
Turning to `CN(Cc1cc(F)ccc1Cc1cnc2c(O)c(C(=O)NCCO)c(=O)n(C)c2c1)S(C)(=O)=O` [Example 72, 7-{4-Fluoro-2-[(methanesulfonyl-methyl-amino)-methyl]-benzyl}-4-hydroxy-1-methyl-2-oxo-1,2-dihydro-[1,5]naphthyridine-3-carboxylic acid(2-hydroxy-ethyl)-amide], the IC50 against HIV integrase is less than 100 nM. The EC50 in series [1] was 1 to 100 nM.
